From US9931410B2, “Nanoparticles for targeted delivery of multiple therapeutic agents and methods of use” (priority 2012, dated 2018)

Assays:
[1] = Drug loading and encapsulation efficiency (AAS for platinum, spectrophotometry for irinotecan); type: physicochemical
Description: Particle sizing was performed using dynamic light scattering (DLS) with a Zetasizer Nano ZS instrument (Malvern Instruments Ltd., U.K.). For each measurement, 100 μL or more of the sample was loaded in a disposable low-volume cuvette. Transmission electron microscopy (TEM) experiments were carried out on a JEOL 2011 instrument at an acceleration voltage of 200 kV. The TEM sample was prepared by depositing 10 μL of the nanoparticle suspension (1.0 mg/mL) onto a 300-mesh carbon-coated copper grid. Samples were blotted away after 30 minutes incubation and the grids were negatively stained for 20 minutes at room temperature with a sterile-filtered 1% (w/v) uranyl acetate aqueous solution. Drug loading and encapsulation efficiency (EE) were determined by quantifying the amount of drug in the nanoparticles. Drug loading is defined as the mass fraction of the drug in the nanoparticles, whereas EE is the fraction of initial drug that is encapsulated by the nanoparticles. After synthesis, nanoparticles were dissolved in a solution 50/50 acetonitrile/water and vortexed for several hours to induce nanoparticle dissociation. The amount of platinum inside the nanoparticles was detected using Atomic Absorption Spectroscopy (AAS), from which the load of cisplatin was calculated. Irinotecan was detected using spectrophotometry on a TECAN 1000 plate reader at a wavelength of 385 nm. A calibration curve with known concentrations of irinotecan was prepared, and the amount of irinotecan encapsulated in the nanoparticles was calculated using the calibration curve.

[2] = Drug release from nanoparticles over time in phosphate buffered saline; type: physicochemical; conditions: PLGA-PEG-LIG nanoparticles, irinotecan to cisplatin ratio 2:1, phosphate buffered saline
Description: FIG. 8 is a graph showing the percent of irinotecan and platinum release from PLGA-PEG-LIG nanoparticles over time in phosphate buffered saline.
Next, the amount of cisplatin and irinotecan encapsulated in the nanoparticles as well their encapsulation efficiency (EE) was determined (FIG. 7). As expected, cisplatin was encapsulated with very high efficiency (>80%) due to the hydrophobic-hydrophobic interaction PLGA and PLA. […] This might be due to hydrophilic-hydrophilic interactions of the platinum prodrug and irinotecan. […] The percent drug release of irinotecan and platinum of these nanoparticles over time was also assessed. Irinotecan was released from these nanoparticles at a faster rate compared to the release of the Pt-containing chemotherapeutic agent (FIG. 8).

[3] = after self-assembly with PLGA-PEG
[4] = mixed with both PLGA-PEG and PLA-cisplatin

drug loading of irinotecan [1, 3] [%] | encapsulation efficiency (EE) of irinotecan [1, 3] [%] | drug loading of irinotecan [1, 4] [%] | encapsulation efficiency (EE) of irinotecan [1, 4] [%] | rate of drug release from nanoparticles compared to the Pt-containing agent [2] | SMILES | encapsulation efficiency of cisplatin ([1]; cisplatin as PLA-cisplatin in nanoparticles) [%]
0.5 | 10 | 2.2 | 44 | faster rate | CCc1c2c(nc3ccc(OC(=O)N4CCC(N5CCCCC5)CC4)cc13)-c1cc3c(c(=O)n1C2)COC(=O)[C@]3(O)CC [Irinotecan, irinotecan] | 
 |  |  |  |  | N.N.[Cl][Pt][Cl] [cisplatin] | > 80
